Measurements taken from ChEMBL document CHEMBL4312009, “Multigram scale synthesis of polycyclic lactones and evaluation of antitumor and other biological properties” (Eur J Med Chem, 2020).

Experiments:
[1] = target: Microtubule-associated protein tau (Homo sapiens) (UniProt P10636); assay: Inhibition of human Tau at 40 uM relative to control
[2] = target: Apolipoprotein C-III (Homo sapiens) (UniProt P02656); assay: Inhibition of human APOC3 at 40 uM relative to control
[3] = target: Proprotein convertase subtilisin/kexin type 9 (Homo sapiens) (UniProt Q8NBP7); assay: Inhibition of human PCSK9 at 40 uM relative to control
Sequence of Proprotein convertase subtilisin/kexin type 9 (Homo sapiens) (Q8NBP7 31-152 limits assumed): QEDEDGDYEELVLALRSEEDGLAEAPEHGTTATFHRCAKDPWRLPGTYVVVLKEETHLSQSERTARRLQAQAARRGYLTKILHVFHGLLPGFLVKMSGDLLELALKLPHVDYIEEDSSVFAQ
Sequence of Proprotein convertase subtilisin/kexin type 9 (Homo sapiens) (Q8NBP7 153-692 limits assumed): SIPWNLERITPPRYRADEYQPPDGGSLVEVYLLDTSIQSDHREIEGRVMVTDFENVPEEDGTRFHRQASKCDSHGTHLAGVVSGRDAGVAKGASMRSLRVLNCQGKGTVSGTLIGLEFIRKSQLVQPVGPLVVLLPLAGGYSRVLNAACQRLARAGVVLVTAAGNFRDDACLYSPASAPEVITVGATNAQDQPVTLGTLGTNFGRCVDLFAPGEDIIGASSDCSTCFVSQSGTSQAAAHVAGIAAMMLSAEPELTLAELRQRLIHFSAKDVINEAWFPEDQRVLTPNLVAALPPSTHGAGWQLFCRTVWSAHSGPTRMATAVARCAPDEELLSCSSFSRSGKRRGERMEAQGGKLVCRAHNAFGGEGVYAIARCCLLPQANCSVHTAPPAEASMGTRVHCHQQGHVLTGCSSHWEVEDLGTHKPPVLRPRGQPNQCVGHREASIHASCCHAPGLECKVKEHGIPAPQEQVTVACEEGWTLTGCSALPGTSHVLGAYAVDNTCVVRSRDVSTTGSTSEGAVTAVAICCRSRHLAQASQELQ

HeLa [4] = assay: Cell cycle arrest in human HeLa cells assessed as effect on mitotic index incubated for 21 hrs by propidium iodide based flow cytometry; type: functional
[5] = tested on: GTPase KRas (Homo sapiens), P01116 [UNDEFINED MUTATION]; assay: Inhibition of KRas mutant in human HCT116 cells assessed as cell viability by measuring ATP at 20 uM relative to control; type: cell-based
Sequence of GTPase KRas (Homo sapiens), P01116 [UNDEFINED MUTATION] (P01116 whole entry, looked up, stated change not applied): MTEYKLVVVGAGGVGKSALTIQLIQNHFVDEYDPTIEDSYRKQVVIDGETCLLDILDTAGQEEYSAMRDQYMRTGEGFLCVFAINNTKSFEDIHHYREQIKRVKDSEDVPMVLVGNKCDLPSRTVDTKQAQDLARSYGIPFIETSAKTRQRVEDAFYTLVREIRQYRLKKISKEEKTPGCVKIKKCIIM

[6] = tested on: GTPase KRas (Homo sapiens), P01116 [UNDEFINED MUTATION]; assay: Inhibition of KRas mutant in human SW480 cells assessed as cell viability by measuring ATP at 0.2 uM relative to control; type: cell-based
HT-29 [7] = assay: Selectivity index, ratio of IC50 of antiproliferative activity against human HT-29 cells in normoxia to IC50 of antiproliferative activity against human HT-29 cells in hypoxia condition; type: functional
[8] = tested on: GTPase KRas (Homo sapiens), P01116 [UNDEFINED MUTATION]; assay: Inhibition of KRas mutant in human DLD1 cells assessed as cell viability by measuring ATP at 0.2 uM relative to control; type: cell-based
[9] = tested on: GTPase KRas (Homo sapiens), P01116 [UNDEFINED MUTATION]; assay: Inhibition of KRas mutant in human HCT116 cells assessed as cell viability by measuring ATP at 0.2 uM relative to control; type: cell-based
[10] = Activation of wnt pathway in mouse C2C12 cells assessed as increase in beta-catenin activity; type: cell-based
[11] = Activation of wnt pathway in mouse C2C12 cells assessed as increase in alkaline phosphatase activity; type: cell-based
[12] = target: T1, Angiopoietin-like protein 8 (Homo sapiens) (UniProt Q6UXH0); assay: Inhibition of human Angptl8 at 40 uM relative to control
T1 sequence (whole entry): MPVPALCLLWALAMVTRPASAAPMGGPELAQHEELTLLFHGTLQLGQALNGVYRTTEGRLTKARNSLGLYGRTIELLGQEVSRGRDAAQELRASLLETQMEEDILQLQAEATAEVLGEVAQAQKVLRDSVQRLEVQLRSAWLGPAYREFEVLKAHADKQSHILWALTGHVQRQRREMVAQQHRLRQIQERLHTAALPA

CHO = assay: Cytotoxicity against CHO cells assessed as reduction in cell viability; type: cell-based; conditions: Cricetulus griseus
[13] = tested on: GTPase KRas (Homo sapiens), P01116 [UNDEFINED MUTATION]; assay: Inhibition of KRas mutant in human DLD1 cells assessed as cell viability by measuring ATP; type: cell-based
[14] = tested on: GTPase KRas (Homo sapiens), P01116 [UNDEFINED MUTATION]; assay: Inhibition of KRas mutant in human HCT116 cells assessed as cell viability by measuring ATP at 2 uM relative to control; type: cell-based
[15] = tested on: GTPase KRas (Homo sapiens), P01116 [UNDEFINED MUTATION]; assay: Inhibition of KRas mutant in human HCT116 cells […] assessed as cell viability by measuring ATP at 20 uM relative to control; type: cell-based
HeLa [16] = assay: Cell cycle arrest in human HeLa cells incubated for 21 hrs by propidium iodide based flow cytometry; type: functional
HeLa [17] = assay: Cell cycle arrest in human HeLa cells assessed as effect on S phase incubated for 21 hrs by propidium iodide based flow cytometry; type: functional
[18] = target: Sodium channel protein type 9 subunit alpha (Homo sapiens) (UniProt Q15858); assay: Inhibition of human Nav1.7 at 40 uM relative to control
Sequence of Sodium channel protein type 9 subunit alpha (Homo sapiens) (Q15858 whole entry, looked up): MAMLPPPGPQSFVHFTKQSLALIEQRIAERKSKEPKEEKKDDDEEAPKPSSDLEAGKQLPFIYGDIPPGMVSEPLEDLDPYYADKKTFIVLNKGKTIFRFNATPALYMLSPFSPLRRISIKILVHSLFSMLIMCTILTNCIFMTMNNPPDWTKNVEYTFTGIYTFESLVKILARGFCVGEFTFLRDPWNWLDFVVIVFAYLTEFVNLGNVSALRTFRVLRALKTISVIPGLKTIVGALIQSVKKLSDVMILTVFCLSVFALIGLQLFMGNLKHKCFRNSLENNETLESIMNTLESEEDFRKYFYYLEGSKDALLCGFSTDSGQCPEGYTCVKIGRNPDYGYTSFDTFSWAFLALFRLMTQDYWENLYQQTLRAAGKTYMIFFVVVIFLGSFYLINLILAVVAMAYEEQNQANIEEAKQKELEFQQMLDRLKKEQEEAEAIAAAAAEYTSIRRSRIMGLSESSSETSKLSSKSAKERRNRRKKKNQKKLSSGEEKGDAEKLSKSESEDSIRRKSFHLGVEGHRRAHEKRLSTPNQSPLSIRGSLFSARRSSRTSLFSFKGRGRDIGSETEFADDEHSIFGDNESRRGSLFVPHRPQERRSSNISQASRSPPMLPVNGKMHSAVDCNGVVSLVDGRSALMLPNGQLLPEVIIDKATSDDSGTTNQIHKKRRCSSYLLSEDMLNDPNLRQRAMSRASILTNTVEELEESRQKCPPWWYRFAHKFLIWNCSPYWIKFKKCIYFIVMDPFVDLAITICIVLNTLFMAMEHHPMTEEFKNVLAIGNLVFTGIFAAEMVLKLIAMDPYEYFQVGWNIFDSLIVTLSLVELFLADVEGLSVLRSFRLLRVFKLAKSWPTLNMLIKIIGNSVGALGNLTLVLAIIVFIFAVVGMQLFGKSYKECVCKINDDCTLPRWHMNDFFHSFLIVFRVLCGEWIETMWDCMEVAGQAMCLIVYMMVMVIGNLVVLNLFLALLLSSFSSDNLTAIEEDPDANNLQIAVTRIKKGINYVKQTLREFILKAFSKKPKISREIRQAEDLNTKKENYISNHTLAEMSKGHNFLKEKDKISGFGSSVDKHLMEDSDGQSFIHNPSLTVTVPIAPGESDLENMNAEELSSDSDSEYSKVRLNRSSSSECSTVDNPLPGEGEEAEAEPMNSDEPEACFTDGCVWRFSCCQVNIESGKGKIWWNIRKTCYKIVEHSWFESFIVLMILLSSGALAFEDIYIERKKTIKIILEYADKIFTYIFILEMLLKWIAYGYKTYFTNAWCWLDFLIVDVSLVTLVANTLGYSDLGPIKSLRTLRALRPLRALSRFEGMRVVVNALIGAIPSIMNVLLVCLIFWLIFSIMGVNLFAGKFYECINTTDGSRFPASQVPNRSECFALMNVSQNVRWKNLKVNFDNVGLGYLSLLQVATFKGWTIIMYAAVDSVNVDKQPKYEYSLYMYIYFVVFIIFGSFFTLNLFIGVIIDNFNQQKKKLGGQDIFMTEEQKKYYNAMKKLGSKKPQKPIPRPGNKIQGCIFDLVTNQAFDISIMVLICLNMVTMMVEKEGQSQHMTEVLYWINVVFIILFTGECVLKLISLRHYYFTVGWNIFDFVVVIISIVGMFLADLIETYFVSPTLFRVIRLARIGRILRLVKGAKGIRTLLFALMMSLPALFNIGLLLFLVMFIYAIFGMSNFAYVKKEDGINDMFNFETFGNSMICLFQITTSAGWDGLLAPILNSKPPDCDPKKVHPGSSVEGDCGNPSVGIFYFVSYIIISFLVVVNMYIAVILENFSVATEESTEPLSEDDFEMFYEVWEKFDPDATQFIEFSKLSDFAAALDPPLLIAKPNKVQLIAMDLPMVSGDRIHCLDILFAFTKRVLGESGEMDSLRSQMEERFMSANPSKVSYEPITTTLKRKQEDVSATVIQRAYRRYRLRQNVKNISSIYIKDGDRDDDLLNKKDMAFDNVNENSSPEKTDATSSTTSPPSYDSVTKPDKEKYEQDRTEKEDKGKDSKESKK

[19] = tested on: GTPase KRas (Homo sapiens), P01116 [UNDEFINED MUTATION]; assay: Inhibition of KRas mutant in human HCT116 cells […] assessed as cell viability by measuring ATP at 0.2 uM relative to control; type: cell-based
[20] = tested on: GTPase KRas (Homo sapiens), P01116 [UNDEFINED MUTATION]; assay: Inhibition of KRas mutant in human HCT116 cells […] assessed as cell viability by measuring ATP; type: cell-based
HeLa [21] = assay: Cell cycle arrest in human HeLa cells assessed as effect on 2N stage incubated for 21 hrs by propidium iodide based flow cytometry; type: functional
[22] = tested on: GTPase KRas (Homo sapiens), P01116 [UNDEFINED MUTATION]; assay: Inhibition of KRas mutant in human DLD1 cells assessed as cell viability by measuring ATP at 20 uM relative to control; type: cell-based
[23] = tested on: GTPase KRas (Homo sapiens), P01116 [UNDEFINED MUTATION]; assay: Inhibition of KRas mutant in human SW480 cells assessed as cell viability by measuring ATP at 2 uM relative to control; type: cell-based
HeLa [24] = assay: Cell cycle arrest in human HeLa cells assessed as effect on 4N stage incubated for 21 hrs by propidium iodide based flow cytometry; type: functional
CYP1A1 = assay: Selectivity index, ratio of IC50 of cytotoxicity against CHO cells to IC50 for bioactivation in CYP1A1 (unknown origin) transfected CHO cells assessed as CYP1A1-mediated drug activation by measuring reduction in cell viability; type: cell-based; conditions: hamster, CHO cells and CYP1A1-transfected CHO cells; read-out: Ratio IC50
HT-29 [25] = assay: Antiproliferative activity against human HT-29 cells assessed as reduction in cell viability incubated for 24 hrs in hypoxia condition by MTT assay; type: functional, cell-based; conditions: HT-29, 24 h
[26] = tested on: GTPase KRas (Homo sapiens), P01116 [UNDEFINED MUTATION]; assay: Inhibition of KRas mutant in human HCT116 cells assessed as cell viability by measuring ATP; type: cell-based
[27] = tested on: GTPase KRas (Homo sapiens), P01116 [UNDEFINED MUTATION]; assay: Inhibition of KRas mutant in human HCT116 cells […] assessed as cell viability by measuring ATP at 2 uM relative to control; type: cell-based
[28] = tested on: GTPase KRas (Homo sapiens), P01116 [UNDEFINED MUTATION]; assay: Inhibition of KRas mutant in human DLD1 cells assessed as cell viability by measuring ATP at 2 uM relative to control; type: cell-based
HeLa [29] = assay: Cell cycle arrest in human HeLa cells assessed as effect on G1 phase incubated for 21 hrs by propidium iodide based flow cytometry; type: functional
[30] = tested on: GTPase KRas (Homo sapiens), P01116 [UNDEFINED MUTATION]; assay: Inhibition of KRas mutant in human SW480 cells assessed as cell viability by measuring ATP; type: cell-based
HT-29 [31] = assay: Antiproliferative activity against human HT-29 cells assessed as reduction in cell viability incubated for 24 hrs by MTT assay; type: functional, cell-based; conditions: HT-29, 24 h
[32] = tested on: GTPase KRas (Homo sapiens), P01116 [UNDEFINED MUTATION]; assay: Inhibition of KRas mutant in human SW480 cells assessed as cell viability by measuring ATP at 20 uM relative to control; type: cell-based

Sequence of Apolipoprotein C-III (Homo sapiens) (P02656 whole entry): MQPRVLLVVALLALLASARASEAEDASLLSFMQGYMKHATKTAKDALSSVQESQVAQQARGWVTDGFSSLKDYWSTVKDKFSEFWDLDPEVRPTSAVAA
Sequence of Microtubule-associated protein tau (Homo sapiens) (P10636 whole entry): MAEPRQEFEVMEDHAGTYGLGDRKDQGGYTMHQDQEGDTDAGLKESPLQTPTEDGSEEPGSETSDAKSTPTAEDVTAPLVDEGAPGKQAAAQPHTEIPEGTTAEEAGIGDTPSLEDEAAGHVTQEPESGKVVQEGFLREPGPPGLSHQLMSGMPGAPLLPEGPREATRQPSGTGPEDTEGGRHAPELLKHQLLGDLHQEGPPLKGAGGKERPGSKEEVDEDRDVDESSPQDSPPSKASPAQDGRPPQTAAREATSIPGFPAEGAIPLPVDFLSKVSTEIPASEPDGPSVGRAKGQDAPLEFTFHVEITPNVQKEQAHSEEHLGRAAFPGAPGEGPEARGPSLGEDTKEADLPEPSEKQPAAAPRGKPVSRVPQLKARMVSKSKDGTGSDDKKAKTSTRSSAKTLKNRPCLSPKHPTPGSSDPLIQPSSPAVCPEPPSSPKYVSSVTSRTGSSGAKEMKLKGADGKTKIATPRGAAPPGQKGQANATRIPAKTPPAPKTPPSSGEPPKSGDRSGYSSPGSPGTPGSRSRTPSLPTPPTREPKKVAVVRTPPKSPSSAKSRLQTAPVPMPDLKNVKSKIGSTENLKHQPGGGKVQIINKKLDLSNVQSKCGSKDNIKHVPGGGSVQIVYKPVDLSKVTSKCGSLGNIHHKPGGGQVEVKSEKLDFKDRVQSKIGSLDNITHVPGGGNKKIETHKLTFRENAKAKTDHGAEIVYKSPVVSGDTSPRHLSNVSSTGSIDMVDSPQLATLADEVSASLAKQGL

inhibition [1]: 92%
inhibition [2]: 89%
inhibition [3]: 95%
EC50 (HeLa [4]): 2100 nM
EC50 [10]: > 20 µM
EC50 [11]: 6.7 µM
inhibition [12]: 93%
IC50 (HeLa [16]): 1700 nM
IC50 (HeLa [17]): > 10 µM
inhibition [18]: 76%
IC50 (HeLa [21]): 2200 nM
EC50 (HeLa [24]): 2000 nM
IC50 (HT-29 [25]): 7.33 µM
EC50 (HeLa [29]): > 10 µM
IC50 (HT-29 [31]): 1730 nM
Compound: CCCCc1c2c(c(C)c3c1C(=O)OC3)Oc1ccccc1O2
inhibition [5]: 78%
inhibition [6]: 17%
Ratio IC50 (HT-29 [7]): 0.24
inhibition [8]: 17%
inhibition [9]: 5%
IC50 (CHO): 1480 nM
inhibition [13]: Dose-dependent effect
inhibition [14]: 66%
inhibition [15]: 80%
inhibition [19]: 67%
inhibition [20]: Dose-dependent effect
inhibition [22]: 91%
inhibition [23]: 73%
selectivity ratio (CYP1A1): 3.7
inhibition [26]: Dose-dependent effect
inhibition [27]: 63%
inhibition [28]: 65%
inhibition [30]: Dose-dependent effect
inhibition [32]: 138%
